One block for each molecule: values may come before it.
What was measured:
MEK1 = MEK1 (Homo sapiens, UniProt Q02750); assay: Kinase inhibitory activity, full kinase panel; type: biochemical; settings: single concentration of 1 μM, read-out: %Inhibitory ability
Method: (§1) In order to measure inhibitory activity (% inhibitory ability) against a protein kinase with respect to the compound of the present invention, a biochemical assay was performed in a full kinase panel shown in the following Table 1. As an experimental compound, the (S)-5-((3-fluorophenyl)ethynyl)-N-(piperidin-3-yl)-3-ureidothiophene-2-carboxamide synthesized in Example 24 was used.

DRAK1 = DRAK1 (Homo sapiens, UniProt Q9UEE5); assay: Kinase inhibitory activity, full kinase panel; type: biochemical; settings: single concentration of 1 μM, read-out: %Inhibitory ability
Method: as §1

MAPKAPK5 = MAPKAPK5 (Homo sapiens, UniProt Q8IW41); assay: Kinase inhibitory activity, full kinase panel; type: biochemical; settings: single concentration of 1 μM, read-out: %Inhibitory ability
Method: as §1

HPK1 = HPK1 (Homo sapiens, UniProt Q92918); assay: Kinase inhibitory activity, full kinase panel; type: biochemical; settings: single concentration of 1 μM, read-out: %Inhibitory ability
Method: as §1

MINK = MINK (Homo sapiens, UniProt Q8N4C8); assay: Kinase inhibitory activity, full kinase panel; type: biochemical; settings: single concentration of 1 μM, read-out: %Inhibitory ability
Method: as §1

FYN = FYN (Homo sapiens, UniProt P06241); assay: Kinase inhibitory activity, full kinase panel; type: biochemical; settings: single concentration of 1 μM, read-out: %Inhibitory ability
Method: as §1

FGR = FGR (Homo sapiens, UniProt P09769); assay: Kinase inhibitory activity, full kinase panel; type: biochemical; settings: single concentration of 1 μM, read-out: %Inhibitory ability
Method: as §1

CSF1R = CSF1R (Homo sapiens, UniProt P07333); assay: Kinase inhibitory activity, full kinase panel; type: biochemical; settings: single concentration of 1 μM, read-out: %Inhibitory ability
Method: as §1

TRKA = TRKA (Homo sapiens, UniProt P04629); assay: Kinase inhibitory activity, full kinase panel; type: biochemical; settings: single concentration of 1 μM, read-out: %Inhibitory ability
Method: as §1

FLT3 = FLT3 (Homo sapiens, UniProt P36888); assay: Kinase inhibitory activity, full kinase panel; type: biochemical; settings: single concentration of 1 μM, read-out: %Inhibitory ability
Method: as §1

BLK = BLK (Homo sapiens, UniProt P51451); assay: Kinase inhibitory activity, full kinase panel; type: biochemical; settings: single concentration of 1 μM, read-out: %Inhibitory ability
Method: as §1

EPHA3 = EPHA3 (Homo sapiens, UniProt P29320); assay: Kinase inhibitory activity, full kinase panel; type: biochemical; settings: single concentration of 1 μM, read-out: %Inhibitory ability
Method: as §1

ANKK1 = ANKK1 (Homo sapiens, UniProt Q8NFD2); assay: Kinase inhibitory activity, full kinase panel; type: biochemical; settings: single concentration of 1 μM, read-out: %Inhibitory ability
Method: as §1

MAP3K2 = MAP3K2 (Homo sapiens, UniProt Q9Y2U5); assay: Kinase inhibitory activity, full kinase panel; type: biochemical; settings: single concentration of 1 μM, read-out: %Inhibitory ability
Method: as §1

ZAP70 = ZAP70 (Homo sapiens, UniProt P43403); assay: Kinase inhibitory activity, full kinase panel; type: biochemical; settings: single concentration of 1 μM, read-out: %Inhibitory ability
Method: as §1

PHKG1 = PHKG1 (Homo sapiens, UniProt Q16816); assay: Kinase inhibitory activity, full kinase panel; type: biochemical; settings: single concentration of 1 μM, read-out: %Inhibitory ability
Method: as §1

OSR1 = OSR1 (Homo sapiens, UniProt O95747); assay: Kinase inhibitory activity, full kinase panel; type: biochemical; settings: single concentration of 1 μM, read-out: %Inhibitory ability
Method: as §1

IRAK4 = IRAK4 (Homo sapiens, UniProt Q9NWZ3); assay: Kinase inhibitory activity, full kinase panel; type: biochemical; settings: single concentration of 1 μM, read-out: %Inhibitory ability
Method: as §1

PDGFRA = PDGFRA (Homo sapiens, UniProt P16234); assay: Kinase inhibitory activity, full kinase panel; type: biochemical; settings: single concentration of 1 μM, read-out: %Inhibitory ability
Method: as §1

TAK1 = TAK1 (Homo sapiens, UniProt O43318); assay: Kinase inhibitory activity, full kinase panel; type: biochemical; settings: single concentration of 1 μM, read-out: %Inhibitory ability
Method: as §1

BUB1 = BUB1 (Homo sapiens, UniProt O43683); assay: Kinase inhibitory activity, full kinase panel; type: biochemical; settings: single concentration of 1 μM, read-out: %Inhibitory ability
Method: as §1

PAK4 = PAK4 (Homo sapiens, UniProt O96013); assay: Kinase inhibitory activity, full kinase panel; type: biochemical; settings: single concentration of 1 μM, read-out: %Inhibitory ability
Method: as §1

DAPK2 = DAPK2 (Homo sapiens, UniProt Q9UIK4); assay: Kinase inhibitory activity, full kinase panel; type: biochemical; settings: single concentration of 1 μM, read-out: %Inhibitory ability
Method: as §1

[1] = test system: FLT3-ITD-F691L-D835Y Ba/F3 cells; assay: In vivo bioluminescent efficacy study in mouse AML model; settings: for T/C, reduction of luminescence: compared with AC220-treated and vehicle control mice
Method: (§2) Nude mice (5-6 weeks old)(Orient) were purchased and used after a week. Mice were anesthetized following IACUC approved animal protocol. FLT3-ITD F691L-D835Y, luc+ Ba/F3 cell (Established in-house) suspension (in 0.1 mL RPMI1640 (Welgene) of 1.0×10^6 cells) was injected into tail vein intravenously using a 29-G needle, and an tail mark was added to each animal for identification. After 6 days, the luminescence intensity was measured using IVIS (Perkin Elmer) to calculate the ROI intensity. Once ROI intensity reaches the study-desired minimum intensity (usually 2×106), mice were randomized into different treatment groups based on signal intensity.
Each compound was dissolved in NMP at 20× final concentration and diluted to 1× with the remaining vehicle components (vehicle: 5% NMP, 15% solutol (Sigma-aldrich), 30% PEG400 (Sigma-aldrich), 50% 0.05M citric acid (Sigma-aldrich)). Each compound solution was prepared freshly just before administration. Compounds were administered orally using a mouse sondae once a day, 0.1 mL per mouse. Mice were humanely euthanized if animals experience 20% body weight loss.
D-Luciferin (Promega) was dissolved in DPBS (Welgene) (without Ca2+ and Mg2+) at 15 mg/mL, and the stock solution was prepared after filtration using 0.22 μm syringe filters (BD). Luciferin solution (150 mg/kg in DPBS) was injected intraperitoneally into each mouse (200 μL/mouse). After 5 min, mice were anesthetized for 5 min using isoflurane (JW Pharma). Luminescence signal was read using IVIS200 (exposure time: auto, binning: 8, F/stop: 1). Signal intensity and body weights were measured every 3 days to monitor the ROI intensity and treatment-induced body weight loss. […] Data was analyzed using Living Image software (Caliper, PerkinElmer).
Statistical analysis of luminescence signal intensity, mouse body weight, and spleen/body weight ratio were evaluated using two-way ANOVA. Differences were considered statistically significant at p<0.005.

[2] = test system: FLT3-ITD-F691L-D835Y Ba/F3 cells; assay: In vivo life-span (survival) in mouse AML model; settings: for extension of lifespan compared with vehicle control: oral; for Median survival: qd
Method: as §2, with “intensity.” for “intensity. Once ROI intensity reaches the study-desired minimum intensity (usually 2×106), mice were randomized into different treatment groups based on signal intensity.”
Each compound solution was prepared freshly just before administration. Compounds were administered orally using a mouse sondae once a day, 0.1 mL per mouse. Mice were humanely euthanized if animals experience 20% body weight loss.

Chain of FLT3 (P36888 27-993): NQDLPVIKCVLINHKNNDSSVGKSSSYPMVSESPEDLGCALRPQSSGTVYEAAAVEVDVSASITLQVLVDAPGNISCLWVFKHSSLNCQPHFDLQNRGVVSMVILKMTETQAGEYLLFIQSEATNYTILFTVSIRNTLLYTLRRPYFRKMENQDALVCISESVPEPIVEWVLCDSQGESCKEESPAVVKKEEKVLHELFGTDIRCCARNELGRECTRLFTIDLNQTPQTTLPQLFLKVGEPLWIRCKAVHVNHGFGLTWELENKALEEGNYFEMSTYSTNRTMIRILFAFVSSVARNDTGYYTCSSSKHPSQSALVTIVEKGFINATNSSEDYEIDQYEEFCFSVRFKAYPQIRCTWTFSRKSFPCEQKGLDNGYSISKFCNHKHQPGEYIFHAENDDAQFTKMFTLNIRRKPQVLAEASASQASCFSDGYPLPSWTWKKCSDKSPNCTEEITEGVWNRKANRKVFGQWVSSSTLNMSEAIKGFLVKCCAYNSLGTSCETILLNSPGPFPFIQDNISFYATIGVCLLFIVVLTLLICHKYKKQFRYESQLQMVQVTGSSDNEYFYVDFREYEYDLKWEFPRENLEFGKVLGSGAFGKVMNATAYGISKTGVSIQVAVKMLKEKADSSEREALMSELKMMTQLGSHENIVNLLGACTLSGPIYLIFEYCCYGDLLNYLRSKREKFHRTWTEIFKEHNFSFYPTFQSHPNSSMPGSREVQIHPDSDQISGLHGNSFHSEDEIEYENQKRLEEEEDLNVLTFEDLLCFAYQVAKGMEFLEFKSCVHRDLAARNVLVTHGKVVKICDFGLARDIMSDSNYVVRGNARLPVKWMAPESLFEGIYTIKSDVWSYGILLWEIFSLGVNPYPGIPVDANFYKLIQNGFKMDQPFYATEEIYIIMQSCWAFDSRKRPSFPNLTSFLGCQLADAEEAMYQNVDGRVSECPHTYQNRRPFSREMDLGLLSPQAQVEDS
Chain of FYN (P06241 whole entry, species assumed): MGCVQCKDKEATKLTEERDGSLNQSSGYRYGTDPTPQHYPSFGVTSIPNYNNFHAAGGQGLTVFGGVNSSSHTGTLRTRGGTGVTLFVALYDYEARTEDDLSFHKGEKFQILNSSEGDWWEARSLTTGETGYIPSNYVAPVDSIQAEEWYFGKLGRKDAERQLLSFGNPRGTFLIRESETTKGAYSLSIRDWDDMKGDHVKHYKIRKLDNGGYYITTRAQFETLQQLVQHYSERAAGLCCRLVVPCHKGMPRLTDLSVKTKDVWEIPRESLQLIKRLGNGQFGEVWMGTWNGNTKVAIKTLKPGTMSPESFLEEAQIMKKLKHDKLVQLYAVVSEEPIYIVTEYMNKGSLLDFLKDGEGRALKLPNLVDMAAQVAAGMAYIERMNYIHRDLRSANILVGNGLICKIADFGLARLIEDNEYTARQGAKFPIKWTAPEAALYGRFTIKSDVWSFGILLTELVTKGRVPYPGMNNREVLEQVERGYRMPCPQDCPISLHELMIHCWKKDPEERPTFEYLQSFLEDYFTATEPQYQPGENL
Chain of TRKA (P04629 33-796, species assumed): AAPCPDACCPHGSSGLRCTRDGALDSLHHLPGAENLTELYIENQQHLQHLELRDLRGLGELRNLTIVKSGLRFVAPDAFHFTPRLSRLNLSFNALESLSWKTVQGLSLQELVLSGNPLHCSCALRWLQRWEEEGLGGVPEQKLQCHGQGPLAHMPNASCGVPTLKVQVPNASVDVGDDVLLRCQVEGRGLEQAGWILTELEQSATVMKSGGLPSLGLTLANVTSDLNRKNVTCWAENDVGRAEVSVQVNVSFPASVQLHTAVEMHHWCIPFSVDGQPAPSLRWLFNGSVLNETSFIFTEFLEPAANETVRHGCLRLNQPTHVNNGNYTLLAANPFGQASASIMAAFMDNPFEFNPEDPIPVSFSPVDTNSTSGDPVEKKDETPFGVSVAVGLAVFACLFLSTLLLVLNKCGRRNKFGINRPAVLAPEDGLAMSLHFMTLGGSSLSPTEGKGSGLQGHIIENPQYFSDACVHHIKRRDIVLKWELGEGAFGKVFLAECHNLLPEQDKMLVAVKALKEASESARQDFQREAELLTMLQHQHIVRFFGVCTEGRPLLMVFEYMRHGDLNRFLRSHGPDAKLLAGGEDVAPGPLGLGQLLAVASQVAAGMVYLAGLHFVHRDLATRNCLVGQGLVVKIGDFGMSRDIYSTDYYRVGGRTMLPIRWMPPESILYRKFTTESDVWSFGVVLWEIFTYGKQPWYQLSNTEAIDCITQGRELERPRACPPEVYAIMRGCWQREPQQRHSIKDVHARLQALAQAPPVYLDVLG
Chain of DAPK2 (Q9UIK4 whole entry, species assumed): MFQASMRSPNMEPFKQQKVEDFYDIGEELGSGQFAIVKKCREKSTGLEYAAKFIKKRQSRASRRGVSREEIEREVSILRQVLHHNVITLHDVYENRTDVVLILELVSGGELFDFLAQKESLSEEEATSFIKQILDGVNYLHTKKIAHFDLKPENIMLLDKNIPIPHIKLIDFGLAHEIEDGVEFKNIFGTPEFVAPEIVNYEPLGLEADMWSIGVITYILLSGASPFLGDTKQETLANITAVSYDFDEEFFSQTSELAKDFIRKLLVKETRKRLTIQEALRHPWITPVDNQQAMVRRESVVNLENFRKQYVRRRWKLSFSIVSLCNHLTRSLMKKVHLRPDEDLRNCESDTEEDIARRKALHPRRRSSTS
Chain of ANKK1 (Q8NFD2 whole entry, species assumed): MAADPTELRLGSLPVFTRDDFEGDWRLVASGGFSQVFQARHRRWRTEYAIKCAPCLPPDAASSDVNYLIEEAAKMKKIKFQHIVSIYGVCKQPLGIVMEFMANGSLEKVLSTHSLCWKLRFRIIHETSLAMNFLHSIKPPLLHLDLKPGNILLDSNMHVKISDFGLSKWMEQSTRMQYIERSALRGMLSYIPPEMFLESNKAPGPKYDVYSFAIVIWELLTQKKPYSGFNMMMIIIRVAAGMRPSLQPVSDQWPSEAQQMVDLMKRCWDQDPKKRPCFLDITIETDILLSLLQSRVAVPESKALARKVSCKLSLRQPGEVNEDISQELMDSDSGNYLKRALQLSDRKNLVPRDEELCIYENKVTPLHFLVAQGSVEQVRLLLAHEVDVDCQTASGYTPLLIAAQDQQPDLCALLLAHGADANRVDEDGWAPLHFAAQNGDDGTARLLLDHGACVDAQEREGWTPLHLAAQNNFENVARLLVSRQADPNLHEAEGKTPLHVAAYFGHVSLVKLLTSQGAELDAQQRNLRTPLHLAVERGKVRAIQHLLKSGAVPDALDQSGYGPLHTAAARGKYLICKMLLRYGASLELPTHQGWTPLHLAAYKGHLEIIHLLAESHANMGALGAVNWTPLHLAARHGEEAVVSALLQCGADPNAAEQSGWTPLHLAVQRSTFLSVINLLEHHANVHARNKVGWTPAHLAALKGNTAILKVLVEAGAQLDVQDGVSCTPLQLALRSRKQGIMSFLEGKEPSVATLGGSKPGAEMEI
Chain of CSF1R (P07333 20-972, species assumed): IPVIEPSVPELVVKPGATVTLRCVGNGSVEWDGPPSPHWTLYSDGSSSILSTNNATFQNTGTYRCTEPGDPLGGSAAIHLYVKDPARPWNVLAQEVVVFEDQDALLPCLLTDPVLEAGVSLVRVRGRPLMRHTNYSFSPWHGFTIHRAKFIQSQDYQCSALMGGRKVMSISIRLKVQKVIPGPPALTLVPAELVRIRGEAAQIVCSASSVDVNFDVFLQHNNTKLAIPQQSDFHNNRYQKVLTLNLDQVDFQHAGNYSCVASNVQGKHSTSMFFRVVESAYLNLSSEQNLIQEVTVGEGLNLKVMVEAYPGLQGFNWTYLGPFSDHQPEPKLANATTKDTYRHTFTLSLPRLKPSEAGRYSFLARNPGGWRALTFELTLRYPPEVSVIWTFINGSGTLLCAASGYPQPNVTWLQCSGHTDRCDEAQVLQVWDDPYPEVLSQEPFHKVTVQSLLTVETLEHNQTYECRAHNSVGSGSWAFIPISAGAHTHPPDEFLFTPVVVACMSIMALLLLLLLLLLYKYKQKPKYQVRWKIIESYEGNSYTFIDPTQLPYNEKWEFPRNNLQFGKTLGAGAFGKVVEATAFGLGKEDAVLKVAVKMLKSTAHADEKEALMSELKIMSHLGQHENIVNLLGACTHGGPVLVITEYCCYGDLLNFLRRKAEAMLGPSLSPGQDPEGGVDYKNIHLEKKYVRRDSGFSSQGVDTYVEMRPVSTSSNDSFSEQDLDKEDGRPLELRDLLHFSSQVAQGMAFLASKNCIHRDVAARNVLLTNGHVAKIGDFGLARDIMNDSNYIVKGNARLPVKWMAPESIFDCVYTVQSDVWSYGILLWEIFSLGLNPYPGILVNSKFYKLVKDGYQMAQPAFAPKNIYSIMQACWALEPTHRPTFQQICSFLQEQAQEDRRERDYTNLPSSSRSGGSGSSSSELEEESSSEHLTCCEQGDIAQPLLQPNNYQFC
Chain of DRAK1 (Q9UEE5 whole entry, species assumed): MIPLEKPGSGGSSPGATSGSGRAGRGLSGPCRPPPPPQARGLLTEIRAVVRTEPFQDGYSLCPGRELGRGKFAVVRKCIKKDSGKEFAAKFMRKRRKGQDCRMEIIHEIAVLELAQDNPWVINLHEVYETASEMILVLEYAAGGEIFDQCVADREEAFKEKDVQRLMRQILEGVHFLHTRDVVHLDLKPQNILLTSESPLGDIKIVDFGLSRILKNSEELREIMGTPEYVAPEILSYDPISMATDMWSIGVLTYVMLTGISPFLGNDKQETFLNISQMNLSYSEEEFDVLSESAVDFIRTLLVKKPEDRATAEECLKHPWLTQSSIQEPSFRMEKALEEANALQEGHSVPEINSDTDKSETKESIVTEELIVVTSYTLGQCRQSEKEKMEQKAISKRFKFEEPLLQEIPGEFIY

- inhibition at 1 µM (MEK1): 96.3%
- inhibition at 1 µM (DRAK1): 99.5%
- inhibition at 1 µM (MAPKAPK5): 82%
- inhibition at 1 µM (HPK1): 78%
- inhibition at 1 µM (MINK): 97.1%
- inhibition at 1 µM (FYN): 91.5%
- inhibition at 1 µM (FGR): 94.1%
- inhibition at 1 µM (CSF1R): 98.4%
- inhibition at 1 µM (TRKA): 100%
- inhibition at 1 µM (FLT3): 99.6%
- inhibition at 1 µM (BLK): 93.2%
- inhibition at 1 µM (EPHA3): 80%
- inhibition at 1 µM (ANKK1): 93.3%
- inhibition at 1 µM (MAP3K2): 97.7%
- inhibition at 1 µM (ZAP70): 63%
- inhibition at 1 µM (PHKG1): 98.4%
- inhibition at 1 µM (OSR1): 68%
- inhibition at 1 µM (IRAK4): 99.8%
- inhibition at 1 µM (PDGFRA): 95.8%
- inhibition at 1 µM (TAK1): 91.5%
- inhibition at 1 µM (BUB1): 97.4%
- inhibition at 1 µM (PAK4): 92.2%
- inhibition at 1 µM (DAPK2): 88%
Structure (SMILES): Cc1ccc(C#Cc2cc(NC(N)=O)c(C(=O)N[C@H]3CCCNC3)s2)cc1 [Example 24, (S)—N-(piperidin-3-yl)-5-(p-tolylethynyl)-3-ureidothiophene-2-carboxamide]

Structure (SMILES): NC(=O)Nc1cc(C#Cc2cccc(F)c2)sc1C(=O)N[C@H]1CCCNC1 [Example 22, (S)-5-((3-fluorophenyl)ethynyl)-N-(piperidin-3-yl)-3-ureidothiophene-2-carboxamide]
- T/C, reduction of luminescence ([1]; 15 mg/kg orally once per day): 84.2%
- T/C, reduction of luminescence ([1]; 30 mg/kg orally once per day): 88.7%
- tumor inhibition at low dosages (luminescence) ([1]; 2, 4, 7, 10 mg/kg, po, qd): dose-dependent tumor inhibition in vivo from a dosage of 2 mg/kg
- extension of lifespan compared with vehicle control ([2]; 15 mpk): 26 days
- Median survival ([2]; 15 mpk, po): 23
- extension of lifespan compared with vehicle control ([2]; 30 mpk): 29 days
- Median survival ([2]; 30 mpk, po): 27
- life-span of the mouse model (in words) ([2]; po, qd, 15, 30 mg/kg): extended significantly the life-span

Reference: patent US10442796B2, “2,3,5-substituted thiophene compound as protein kinase inhibitor” (KOREA INSTITUTE OF SCIENCE AND TECHNOLOGY, priority 2016, dated 2019)
